From US11173124B2, “Oral delivery of GLP-1 peptide analogs” (MEDIMMUNE LIMITED, priority 2017, dated 2021)
Several values for one entry are separate records, joined by “and”; a condition that tells them apart may be missing. Identical values can stand only once. Starred links: 1 amine or outer side, 2 acyl side, 3 side chain; linkers in the order of their positions; H or OH if unused. Non-standard residues stand in square brackets, D forms with d. Residues, ends and D or L forms follow the SMILES beside them. Groups on a side chain read outwards from the residue. *: point of attachment. γGlu = O=C(O)[C@H](CCC(=O)[*:2])N[*:1]; αMeF = C[C@](N)(Cc1ccccc1)C(=O)O; αMeK = C[C@](N)(CCCCN)C(=O)O; Lauroyl = CCCCCCCCCCCC(=O)*; αMeS = C[C@](N)(CO)C(=O)O; AEEA = NCCOCCOCC(=O)O; Aib = CC(C)(N)C(=O)O

Experiments:
[1] = Canine study, MEDI7219 enterically coated tablets, enhancer ratios, amounts and peptide doses (Example 15); format: in vivo
Protocol: The next canine study (Table 22) was executed to confirm the performance of the formulation from the previous study (Example 14, Group 2 formulation, Table 21) at 1, 3 and 10 mg MEDI7219 (SEQ ID NO:2) peptide doses. The second goal was to explore the influence of formulation compositions designed around the Group 2 formulation with varying ratios and amounts of permeation enhancers in an enterically-coated tablet form on bioavailability and pharmacokinetic variability. The following formulation variables were tested: sodium chenodeoxycholate:propyl gallate ratios of 1:1, 1:2, and 1:3; 150, 300 and 450 mg of permeation enhancers at a 1:2 ratio; and 1, 3 and 10 mg peptide doses. All tablets were enterically coated with Eudragit formula dissolving at pH 5.5 and above.

GLP-1 receptor = biological target: T1, GLP-1 receptor (Rattus norvegicus, UniProt P32301); experiment: cAMP assay, INSle assay as described in WO 2016/198544; format: cell-based; conditions: in vitro potency at the GLP-1 receptor
T1 construct: endogenous in cells; host or cells: INS-1E rat insulinoma cells (printed as 'INSle')
T1 sequence (P32301 22-463): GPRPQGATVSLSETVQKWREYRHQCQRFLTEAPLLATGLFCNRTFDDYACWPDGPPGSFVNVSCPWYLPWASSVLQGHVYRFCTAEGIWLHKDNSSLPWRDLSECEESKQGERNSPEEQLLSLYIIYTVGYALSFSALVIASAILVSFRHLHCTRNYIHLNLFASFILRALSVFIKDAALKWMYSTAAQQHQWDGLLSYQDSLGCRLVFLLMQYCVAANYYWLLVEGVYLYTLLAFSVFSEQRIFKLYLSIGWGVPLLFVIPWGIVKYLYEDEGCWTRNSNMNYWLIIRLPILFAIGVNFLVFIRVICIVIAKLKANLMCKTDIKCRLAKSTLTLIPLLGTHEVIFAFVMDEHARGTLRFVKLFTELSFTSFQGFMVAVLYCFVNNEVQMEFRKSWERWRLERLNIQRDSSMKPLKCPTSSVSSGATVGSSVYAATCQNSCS
Source text: The biological activity of a GLP-1 peptide analog can be evaluated, for example, by assessing the ability of the peptide to activate a receptor (e.g., a GLP-1 receptor). Peptide activation of such receptors results in downstream accumulation of cAMP second messenger which can be measured in a functional activity assay.

- F ([1]; Intravenous, 0.05 mg/kg): 100%
- F ([1]; Oral tablet, Group 10: 1 mg peptide, 100 mg Na CDC, 200 mg PG): 1.11%
- F ([1]; Oral tablet, Group 11: 1 mg peptide, 100 mg Na CDC, 200 mg PG): 4.78%
- F ([1]; Oral, Group 2 Enterically Coated tablet: 3 mg peptide, 100 mg Na CDC, 200 mg PG): 15.5%
- F ([1]; Oral, Group 3 Enterically Coated tablet: 10 mg peptide, 100 mg Na CDC, 200 mg PG): 7.5%
- F ([1]; Oral, Group 4 Enterically Coated tablet: 3 mg peptide, 75 mg Na CDC, 225 mg PG): 7.52%
- F ([1]; Oral, Group 5 Enterically Coated tablet: 3 mg peptide, 50 mg Na CDC, 100 mg PG): 11.1%
- F ([1]; Oral, Group 6 Enterically Coated tablet: 10 mg peptide, 50 mg Na CDC, 100 mg PG): 13.5%
- F ([1]; Oral, Group 7 Enterically Coated tablet: 3 mg peptide, 150 mg Na CDC, 300 mg PG): 7.53%
- F ([1]; Oral, Group 8 Enterically Coated tablet: 3 mg peptide, 150 mg Na CDC, 150 mg PG): 6.62%
- F ([1]; Oral, Group 9 Enterically Coated tablet: 1 mg peptide, 100 mg Na CDC, 200 mg PG): > 4% and 4.2%
- EC50 (GLP-1 receptor): ~0.116 nM
Structure (SMILES): CCCCCCCCCCCC(=O)N[C@@H](CCC(=O)NCCOCCOCC(=O)NCCOCCOCC(=O)NCCCC[C@H](NC(=O)[C@H](C)NC(=O)[C@@H](NC(=O)[C@](C)(Cc1ccccc1)NC(=O)[C@H](CCC(=O)O)NC(=O)[C@](C)(CCCCN)NC(=O)[C@H](C)NC(=O)[C@H](C)NC(=O)[C@H](CCC(=O)O)NC(=O)CNC(=O)[C@H](CCC(=O)O)NC(=O)[C@H](CC(C)C)NC(=O)[C@H](CCCCNC(=O)COCCOCCNC(=O)COCCOCCNC(=O)CC[C@H](NC(=O)CCCCCCCCCCC)C(=O)O)NC(=O)[C@H](CO)NC(=O)[C@](C)(CO)NC(=O)[C@@H](NC(=O)[C@H](CC(=O)O)NC(=O)[C@H](CO)NC(=O)[C@@H](NC(=O)[C@](C)(Cc1ccccc1)NC(=O)[C@H](CO)NC(=O)CNC(=O)[C@H](CCC(=O)O)NC(=O)C(C)(C)NC(=O)[C@@H](N)Cc1c[nH]cn1)[C@@H](C)O)C(C)C)[C@@H](C)CC)C(=O)N[C@H](C(=O)N[C@H](C(=O)N[C@@H](CCC(=O)O)C(=O)NCC(=O)NCC(N)=O)C(C)C)C(C)C)C(=O)O [MEDI7219, Free-H-[AIB]-EGS-[αMePhe]-TSDV-[αMeSer]-SK[(PEG2)2-γE-Lauroyl]-LEGEAA-[αMeLys]-E-[αMePhe]-IAK[(PEG2)2-γE-Lauroyl]-VVEGG-amide] (H-H[Aib]EGS[αMeF]TSDV[αMeS]SK([AEEA-AEEA-γGlu-Lauroyl])LEGEAA[αMeK]E[αMeF]IAK([AEEA-AEEA-γGlu-Lauroyl])VVEGG-NH2)
